ChEMBL document CHEMBL3301361, “Experimental in vitro DMPK and physicochemical data on a set of publicly disclosed compounds”
Converted amounts (≈) assume the structure as drawn.

What was measured:
in vitro [1] = conditions: human, hepatocytes
physchem [2] = conditions: octan-1-ol/water
physchem [3] = conditions: pH 7.4 buffer
in vitro [4] = conditions: human, plasma
in vitro [5] = conditions: human
in vitro [6] = conditions: SD, HW or BN, rat, plasma
in vitro [7] = conditions: hepatocytes

Row | Structure (SMILES) | hepatocyte CLint (in vitro [1]) | logD (physchem [2]; pH 7.4, LogD7.4) | other results
1 | Cc1c(Cl)cccc1S(=O)(=O)N1CCC[C@H](C(=O)NC2CCCCC2)C1 | 18.6 µL/min/1e6 cells |  | 
2 | C[C@H]1COCCN1c1nc(N2CCOC[C@@H]2C)c2ccc(-c3ccc4nc[nH]c(=O)c4c3)nc2n1 | > 150 µL/min/1e6 cells |  | 
3 | C[C@H]1COCCN1c1nc(N2CCOC[C@@H]2C)c2ccc(-c3cccc(C(=O)NCCO)c3)nc2n1 | 10 µL/min/1e6 cells | 2.49 | 
4 | CC(C)(C)NC(=O)NCCN1CCC(CO)(CNC(=O)c2cc(Cl)cc(Cl)c2)CC1 | 7.08 µL/min/1e6 cells |  | 
5 | CC(C)C[C@H](CO)Nc1nc(SCc2ccccc2)nc2[nH]c(=O)sc12 | 13.5 µL/min/1e6 cells | 4.2 | 
6 | CC(C)C[C@H](CO)Nc1nc(SCc2ccccc2)nc2nc(N)sc12 | 20.4 µL/min/1e6 cells | 4.2 | 
7 | Cc1ccc(-c2cc(C(F)(F)F)nn2-c2ccc(S(C)(=O)=O)cc2)cc1 | 17.4 µL/min/1e6 cells |  | 
8 | O=C(O)c1ccc(-n2nc(C(F)(F)F)cc2-c2ccc(C(F)(F)F)cc2)cc1 | 9.33 µL/min/1e6 cells |  | 
9 | NS(=O)(=O)c1ccc(-n2nc(C(F)(F)F)cc2-c2ccc(C(F)(F)F)cc2)cc1 | 18.2 µL/min/1e6 cells |  | 
10 | COc1ccc(/C=C2\NC(=O)NC2=O)cc1 | 39.8 µL/min/1e6 cells |  | 
11 | CC(C)(CO)Nc1nc(SCc2cccc(F)c2F)nc2nc(N)sc12 | 5.88 µL/min/1e6 cells | 3.37 | 
12 | Clc1ccc(COc2ccc(Br)cc2CN2CCOCC2)cc1 | 55 µL/min/1e6 cells |  | 
13 | Cc1ccc(-c2cc(C(F)(F)F)nn2-c2ccc(C(=O)O)cc2)cc1 | 10.7 µL/min/1e6 cells |  | 
14 | Cc1ccc(-c2cc(C(F)(F)F)nn2-c2ccc([S+](C)[O-])cc2)cc1 (stereo not drawn) | 14.8 µL/min/1e6 cells |  | 
15 | CNC(=O)c1ccccc1Nc1nc(Nc2ccc(N3CCOCC3)cc2OC)ncc1Cl | 16.2 µL/min/1e6 cells |  | solubility thermodynamic (physchem [3]): 0.4 µM (≈ 0.188 µg/mL)
16 | COc1ccccc1SC[C@@H](C)CN[C@@H]1COc2ccccc2SC1 | 51.3 µL/min/1e6 cells |  | 
17 | Cc1ccc2nc(C(=O)O)[nH]c2c1 | 9.77 µL/min/1e6 cells |  | 
18 | C[C@]12CC[C@H](O)CC1=CCC1C2CC[C@]2(C)C(n3cnc4ccccc43)=CCC12 (stereo partly drawn) | 34.7 µL/min/1e6 cells |  | 

Row | Structure (SMILES) | hepatocyte CLint (in vitro [1]) | logD (physchem [2]; pH 7.4, LogD7.4) | other results
19 | Nc1ccc2c(c1)Cc1cc(N)ccc1-2 | 61.7 µL/min/1e6 cells |  | 
20 | C[C@]12CC[C@H](O)CC1=CC[C@@H]1[C@@H]2CC[C@]2(C)C(c3cccnc3)=CC[C@@H]12 [ABIRATERONE] | 55 µL/min/1e6 cells |  | 
21 | Cc1c(N(C)C)c(=O)n(-c2ccccc2)n1C [AMINOPYRINE] | 3.47 µL/min/1e6 cells |  | 
22 | COc1ccc([C@]2(C#N)CC[C@@H](C(=O)O)CC2)cc1OC1CCCC1 [CILOMILAST] |  | 0.76 | fraction unbound at 5 h (in vitro [4]; PPB): 0.0116; microsomal CLint (in vitro [5]; microsomes): 13 µL/min/mg; fraction unbound at 5 h (in vitro [6]): 0.0606; hepatocyte CLint (in vitro [7]): 28 µL/min/1e6 cells
23 | N=C(N)N1CCc2ccccc2C1 [DEBRISOQUIN] | 3.98 µL/min/1e6 cells | -1.01 | 
24 | O=C1Nc2ccc(Cl)cc2[C@@](C#CC2CC2)(C(F)(F)F)O1 [EFAVIRENZ] | 8.51 µL/min/1e6 cells |  | 
25 | CCOc1ccc2nc3ccc(=O)cc-3oc2c1 [ETHOXYRESORUFIN] | > 150 µL/min/1e6 cells |  | 
26 | CCC1=C(C)CN(C(=O)NCCc2ccc(S(=O)(=O)NC(=O)N[C@H]3CC[C@H](C)CC3)cc2)C1=O [GLIMEPIRIDE] | 23.2 µL/min/1e6 cells | 1.73 | 
27 | Cc1c[nH]c(-c2cnc(NCCNc3ccc(C#N)cn3)nc2-c2ccc(Cl)cc2Cl)n1 [LADUVIGLUSIB] |  | 3.86 | fraction unbound at 5 h (in vitro [4]; PPB): 0.0187; microsomal CLint (in vitro [5]; microsomes): 96 µL/min/mg; solubility thermodynamic (physchem [3]): 0.4 µM (≈ 0.186 µg/mL); fraction unbound at 5 h (in vitro [6]): 0.0447; hepatocyte CLint (in vitro [7]): 108 µL/min/1e6 cells
28 | CNCCC=C1c2ccccc2CCc2ccccc21 [NORTRIPTYLINE] |  | 1.58 | fraction unbound at 5 h (in vitro [4]; PPB): 0.132; microsomal CLint (in vitro [5]; microsomes): < 3 µL/min/mg; fraction unbound at 5 h (in vitro [6]): 0.132; hepatocyte CLint (in vitro [7]): 144 µL/min/1e6 cells
29 | COc1ccc(CC(C)(C)NC[C@H](O)c2cc(O)cc3c2OCC(=O)N3)cc1 [OLODATEROL] |  | 0.79 | fraction unbound at 5 h (in vitro [4]; PPB): 0.409; microsomal CLint (in vitro [5]; liver microsomes): 14 µL/min/mg; fraction unbound at 5 h (in vitro [6]): 0.443; hepatocyte CLint (in vitro [7]): 14 µL/min/1e6 cells
30 | CC(C)(Cc1cccc(CC(=O)NCc2cccc(-c3ccc(O)cc3)c2)c1)NC[C@H](O)c1ccc(O)c(NS(C)(=O)=O)c1 [PF-00610355] |  | 1.91 | fraction unbound at 5 h (in vitro [4]; PPB): 0.0053; microsomal CLint (in vitro [5]; liver microsomes): 99 µL/min/mg; solubility thermodynamic (physchem [3]): 57.5 µM (≈ 35.5 µg/mL); fraction unbound at 5 h (in vitro [6]): 0.0818; hepatocyte CLint (in vitro [7]): 37 µL/min/1e6 cells
31 | Cc1cccc([C@H](C)c2c[nH]c(=S)[nH]2)c1C [REZATOMIDINE] |  |  | fraction unbound at 5 h (in vitro [4]): 0.17; logD (physchem [2]; pH 7.4): 2.9; microsomal CLint (in vitro [5]; microsomes): 24.6 µL/min/mg; fraction unbound at 5 h (in vitro [6]): 0.19; hepatocyte CLint (in vitro [7]): 25.7 µL/min/1e6 cells
32 | C[C@]12CC[C@H]3[C@@H](CCC4=CC(=O)CC[C@@]43C)[C@@H]1CC[C@@H]2O [TESTOSTERONE] | > 150 µL/min/1e6 cells |  | 
33 | O=c1ccc2ccc(O)cc2o1 [UMBELLIFERONE] | 123 µL/min/1e6 cells |  | 
34 | CCCS(=O)(=O)Nc1ccc(F)c(C(=O)c2c[nH]c3ncc(-c4ccc(Cl)cc4)cc23)c1F [VEMURAFENIB] | 6.61 µL/min/1e6 cells |  | 
35 | Cc1cc(CC(=O)O)n(C)c1C(=O)c1ccc(Cl)cc1 [ZOMEPIRAC] | < 3 µL/min/1e6 cells |  | 
